Experimental data as given in US20030229035A1, “Method of restoring ciliated cell motility” (priority 2001, published 2003).

Assays:
PKA = PKA (Homo sapiens, UniProt P17612); settings: vendor Tocris; cited from earlier work
PKG = molecular target: T1, PKG (Homo sapiens, UniProt Q13976); settings: no effect on PKG; cited from earlier work
T1 sequence (Q13976 1-671): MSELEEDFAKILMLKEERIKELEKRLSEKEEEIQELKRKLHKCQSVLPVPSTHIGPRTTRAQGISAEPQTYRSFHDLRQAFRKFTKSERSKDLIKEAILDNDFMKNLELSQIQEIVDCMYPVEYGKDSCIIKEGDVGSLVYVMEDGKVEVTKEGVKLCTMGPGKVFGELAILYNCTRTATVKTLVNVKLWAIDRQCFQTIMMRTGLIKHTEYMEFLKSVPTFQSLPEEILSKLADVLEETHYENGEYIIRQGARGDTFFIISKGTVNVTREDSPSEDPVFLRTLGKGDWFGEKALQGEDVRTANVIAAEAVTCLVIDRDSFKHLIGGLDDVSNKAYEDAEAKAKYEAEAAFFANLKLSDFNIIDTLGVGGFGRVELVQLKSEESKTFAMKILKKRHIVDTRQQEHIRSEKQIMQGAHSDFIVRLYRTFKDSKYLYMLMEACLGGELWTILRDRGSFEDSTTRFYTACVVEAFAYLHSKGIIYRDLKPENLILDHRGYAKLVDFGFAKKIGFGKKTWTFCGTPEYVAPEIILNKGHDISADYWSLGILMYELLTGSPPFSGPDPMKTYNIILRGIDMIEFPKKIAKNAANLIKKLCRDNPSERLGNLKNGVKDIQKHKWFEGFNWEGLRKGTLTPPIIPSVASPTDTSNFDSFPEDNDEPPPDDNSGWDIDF

PKC = settings: no effect on PKC; cited from earlier work
proteosome pathway = test: Proteasome inhibition in CHO cells stably expressing recombinant Insl6, Western blot with anti-Insl6 antibody; type: cell-based, chinese hamster; settings: 5 μM, cells harvested after 4 h or 24 h, FIG. 5D
Description: (§1) Based on the magnitude of difference in molecular weights between the two species (31-32 vs. 40 kDa), it was investigated whether Insl6 is ubiquinated. […] In contrast, the absence of the larger bands in a transcription/translation reaction using wheat germ extracts (FIG. 5C) supports the possibility that the Insl6 protein is ubiquinated. […] Briefly CHO cells stably expressing Insl6 were either exposed to vehicle (−) or 5 μM Clasto-Lactacystin-β-lactone (Clasto-L) (+) and cells harvested after 4 h (lanes A & B) or 24 h (lanes C & D). The cell lysates were Western blotted with anti-Insl6 antibody. To address te possibility that over-expression of Insl6 in the CHO cells may have facilitated aberrant ubiquination, the effect of inhibition of the proteasome pathway in a coupled in vitro transcriptiontranslation was investigated. The data obtained support the in vivo data showing that inhibition of the proteasome pathway results in decelerated rate of degradation of the Insl6 (FIG. 5E). Briefly, coupled in vitro transcription/translation of Insl6 using reticulocyte lysates performed in the presence of [^35S]

proteasome pathway = test: Coupled in vitro transcription/translation of Insl6 using reticulocyte lysates with proteasome inhibition; type: biochemical; settings: 5 μM, [35S] L-cysteine, FIG. 5E
Description: as §1

[1] = system: MSC-1 (mouse Sertoli cell line) cells; test: Tyrosine phosphorylation of MSC-1 cellular proteins, anti-phosphotyrosine Western blot; type: cell-based; settings: serum-deprived cells, ten minutes, serum-free conditioned medium from CHO cells expressing Insl6 vs non-transfected CHO; FIG. 11A
Text: The effect of Insl6 on Sertoli cells was confirmed by exposing serum-deprived MSC-1 (mouse Sertoli cell line) cells to serum-free conditioned medium containing recombinant Insl6 secreted by the CHO cells stably expressing epitope-tagged Ins16. The effect of Insl6 on the phosphorylation status of MSC-1 cellular proteins was initially investigated. […] Serum-deprived MSC-1 cells were exposed for ten minutes to serum-free conditioned medium from either CHO cells expressing Insl6 (lane A, FIG. 11A) or from non-transfected CHO cells (lane B, FIG. 11A). Cell lysates were subjected to reducing SDS-PAGE and blotted with antiphphosphotyrosine antibodies. The specific protein bands showing increased phosphorylation in response to Insl6 are indicated by the diamond and star symbols respectively.
(§2) Western Blot Analysis—Western blot analyses were carried out by established protocols known by those skilled in art. […] Equality of loading and efficiency of transfer were assessed by Ponceau staining of the nitrocellulose filters and protein concentration determined by Bradford's method (BioRad). […]

MSC-1 cells = test: Proliferation of MSC-1 cells, colorimetric viable cell assay; type: cell-based, mouse; settings: serum-deprived cells, varying time periods, conditioned medium from CHO cells expressing Insl6 vs non-transfected CHO; FIG. 12
Description: To further investigate the significance of alteration in the tyrosine phosphorylation status of MSC-1 proteins, the effects of Insl6 on proliferation of MSC-1 were tested. For these experiments serum-deprived MSC-1 cells were exposed for varying time periods to serum-free conditioned medium from either CHO cells expressing Insl6 or from non-transfected CHO cells and the number of viable cells determined by a colorimetic assay (celltiter 96 Aqueous One Solution Cell Proliferation Assay; Promega, Madison, Wis., USA).

[2] = system: rat primary Sertoli cells; test: Tyrosine phosphorylation profile of rat primary Sertoli cell proteins by Western blotting; type: cell-based; settings: serum-deprived rat primary Sertoli cells, recombinant Insl6 in serum-free milieu
Text: Although Sertoli cell lines are useful tools for investigating Sertoli cell function, they are important differences between primary Sertoli cells and established Sertoli cell lines. For example, compared to primary Sertoli cells, MSC-1 cells are relatively deficient in the FSH receptor. […] For this purpose, we exposed serum-deprived rat primary Sertoli cells to recombinant Insl6 in a serum-free milieu and determined the tyrosine phosphorylation profile of cellular proteins by Western blotting. […] Based on the premise that Insl6 belongs to the insulin family of proteins, the following canonical signaling pathways involving Insl6 action on Sertoli cells were investigated:
Isolation and culture of primary rat Sertoli cells—Rat Sertoli cells were isolated in our laboratory using a standardized protocol. […] The purity of the Sertoli cell isolate yielded by this protocol is >95% as determined by phase microscopy and alkaline phosphatase staining.
as §2

Molecule: CCCCCCOC(=O)[C@]1(O)C[C@@H]2O[C@@]1(C)n1c3ccccc3c3c4c(c5c6ccccc6n2c5c31)C(=O)NC4 [KT 5720]
- Ki (PKA): 60 nM
- Ki (PKG): > 2000 nM
- Ki (PKC): > 2000 nM

Molecule: CC(C)[C@H](O)[C@@]12NC(=O)[C@H](C)[C@@H]1OC2=O [Clasto-Lactacystin-β-lactone]
- effect on half-life of Insl6 (proteosome pathway): prolongation of the half-life of Insl6
- effect on rate of degradation of Insl6 (proteasome pathway): decelerated rate of degradation of Insl6

B1: Insl6: recombinant His-myc epitope-tagged murine Insl6, insulin family protein, secreted by stably expressing CHO cells (protein)
chain: EEESRPRKLCGRHLLIEVIKLCGQSDWSRFEMEEQSPMTQFFPHYSRKGKAFNPHPSSSAWRRFTNPVPAGVSQKKGTHTWEPQSLPDYQFEKTELLPKARVFSYHSGKPYVKSVQLQKKSTNKMNTFRSLFWGNHSQRKRRGFADKCCVIGCTKEEMAVACLPFVDF
modifications: left off: small tags and cut ends
- effect on tyrosine phosphorylation of cellular proteins [1]: specific tyrosine phosphorylation of proteins of molecular weights of approximately 55 and 40 kDa
- effect on proliferation (MSC-1 cells): significantly inhibits the proliferation of MSC-1 in a time-dependent manner
- effect on tyrosine phosphorylation of cellular proteins [2]: alters the tyrosine phosphorylation status of cellular proteins
